# Data as given in patent US20240368214A1, “POSITIVE NMDA-MODULATING COMPOUNDS AND METHODS OF USE THEREOF” (SAGE THERAPEUTICS, INC., priority 2021, published 2024).
# Read-outs that look alike come from different tables or passages of the source.
# Biological target: T1, recombinant human GluN1/GluN2A receptor (Homo sapiens, UniProt Q05586+Q12879)
# T1 construct: expressed in transfected cells; host or cells: HEK293, tetracycline-inducible expression
# Test: Whole-cell patch clamp of mammalian cells (Syncropatch 384i), NMDA modulation
# Assay type: cell-based
# Conditions: HEK293 cells, human GluN1/GluN2A, glutamate 1 μM / glycine 100 μM, -80 mV, peak amplitude increase; for EC50: read-out: EC50
# Procedure, shortened: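 Modulation read as fold rise in peak current, (Icomp/Icontrol)−1, from 8 concentrations with ≥2 wells each, four-parameter fit. Compound pre-incubated 120 s then co-applied with 1 μM glutamate plus 100 μM glycine; tetracycline-inducible HEK293 GluN1/GluN2A cells clamped at −80 mV.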
# T1 sequence (Q12879 23-1464, other chains not shown): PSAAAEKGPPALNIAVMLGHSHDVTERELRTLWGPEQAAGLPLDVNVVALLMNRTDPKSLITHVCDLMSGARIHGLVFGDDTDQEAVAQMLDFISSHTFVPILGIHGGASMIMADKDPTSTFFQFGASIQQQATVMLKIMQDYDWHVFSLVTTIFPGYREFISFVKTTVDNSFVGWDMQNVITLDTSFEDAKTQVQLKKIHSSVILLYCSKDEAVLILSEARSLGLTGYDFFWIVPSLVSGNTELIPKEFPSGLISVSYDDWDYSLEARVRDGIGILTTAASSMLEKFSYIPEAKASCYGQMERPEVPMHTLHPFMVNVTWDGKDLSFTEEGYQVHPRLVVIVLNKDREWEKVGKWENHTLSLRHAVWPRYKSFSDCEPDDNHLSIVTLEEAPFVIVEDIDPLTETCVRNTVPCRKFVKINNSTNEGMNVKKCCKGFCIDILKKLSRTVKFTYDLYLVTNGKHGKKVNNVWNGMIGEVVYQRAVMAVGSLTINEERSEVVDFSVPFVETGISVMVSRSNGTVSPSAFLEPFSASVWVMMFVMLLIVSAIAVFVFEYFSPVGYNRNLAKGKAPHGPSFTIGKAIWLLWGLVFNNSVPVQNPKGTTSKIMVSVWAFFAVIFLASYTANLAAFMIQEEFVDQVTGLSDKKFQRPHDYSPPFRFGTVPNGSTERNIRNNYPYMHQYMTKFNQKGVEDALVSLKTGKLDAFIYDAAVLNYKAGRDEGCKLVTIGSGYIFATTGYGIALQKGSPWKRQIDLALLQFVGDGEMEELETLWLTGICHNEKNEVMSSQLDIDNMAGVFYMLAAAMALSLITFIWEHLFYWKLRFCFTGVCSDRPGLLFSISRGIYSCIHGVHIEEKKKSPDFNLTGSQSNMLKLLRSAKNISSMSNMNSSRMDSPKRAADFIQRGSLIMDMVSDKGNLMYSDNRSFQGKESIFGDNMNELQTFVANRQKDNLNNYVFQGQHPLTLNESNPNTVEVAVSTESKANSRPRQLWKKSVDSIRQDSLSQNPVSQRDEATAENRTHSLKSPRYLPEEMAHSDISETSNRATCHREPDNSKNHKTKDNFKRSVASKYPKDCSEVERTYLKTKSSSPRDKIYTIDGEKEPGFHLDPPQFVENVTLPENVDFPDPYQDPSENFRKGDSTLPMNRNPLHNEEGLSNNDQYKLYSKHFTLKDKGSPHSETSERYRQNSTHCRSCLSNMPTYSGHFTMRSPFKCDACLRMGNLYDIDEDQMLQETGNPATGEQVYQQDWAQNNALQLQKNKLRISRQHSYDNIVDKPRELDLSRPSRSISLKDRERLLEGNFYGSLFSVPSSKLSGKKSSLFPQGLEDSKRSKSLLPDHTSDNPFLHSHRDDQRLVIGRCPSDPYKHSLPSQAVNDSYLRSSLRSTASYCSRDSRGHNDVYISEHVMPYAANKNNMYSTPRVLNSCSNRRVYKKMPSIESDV
smiles,measurement,setting,value
"CC[C@]1(O)CC[C@@]2(C)[C@@H](CC[C@H]3[C@@H]4[C@@H](C5CC5)C[C@H]([C@H](C)CCCC(C)(C)O)[C@@]4(C)CC[C@@H]32)C1 [Compound B-19, (3S,5S,8R,9S,10S,13R,14S,15R,17R)-15-cyclopropyl-3-ethyl-17-((R)-6-hydroxy-6-methylheptan-2-yl)-10,13-dimethylhexadecahydro-1H-cyclopenta[a]phenanthren-3-ol]",Emax,Table B-2,100 to 200%
same,EC50,Table B-2,100 to 500 nM
"CCC1(O)CCC[C@@]2(C)[C@@H](CC[C@@H]3[C@@H]2CC[C@]2(C)[C@@H]([C@H](C)CC[C@](C)(O)C(F)(F)F)CC[C@@H]32)C1 (stereo in doubt) [Compound D-8, (1R,3aS,3bR,5aS,7S,10aS,10bS,12aR)-7-ethyl-10a,12a-dimethyl-1-((2R,5S)-6,6,6-trifluoro-5-hydroxy-5-methylhexan-2-yl)octadecahydrocyclohepta[a]cyclopenta[f]naphthalen-7-ol]",Emax,Table D-2,100 to 200%
same,EC50,Table D-2,> 1000 nM
"CC[C@]1(O)CC[C@]2(C)C3=CC[C@]4(C)[C@@H]([C@H](C)CC[C@]5(O)CCOC5)CC[C@H]4[C@@H]3CC[C@H]2C1 [Compound E-9, (S)-3-((R)-3-((3S,5S,8S,10S,13R,14S,17R)-3-ethyl-3-hydroxy-10,13-dimethyl-2,3,4,5,6,7,8,10,12,13,14,15,16,17-tetradecahydro-1H-cyclopenta[a]phenanthren-17-yl)butyl)tetrahydrofuran-3-ol]",Emax,Table E-2,> 200%
same,EC50,Table E-2,1 to 100 nM
"CC[C@]1(O)CC[C@@]2(C)[C@@H](CC[C@H]3[C@@H]4[C@@H](C)C[C@H]([C@H](C)CC[C@@](C)(O)C(F)(F)F)[C@@]4(C)CC[C@@H]32)C1 [Compound B-13, (3S,5S,8R,9S,10S,13R,14S,15S,17R)-3-ethyl-10,13,15-trimethyl-17-((2R,5R)-6,6,6-trifluoro-5-hydroxy-5-methylhexan-2-yl)hexadecahydro-1H-cyclopenta[a]phenanthren-3-ol]",Emax,Table B-2,> 200%
same,EC50,Table B-2,100 to 500 nM
"CC[C@]1(O)CC[C@@]2(C)C(=CC[C@H]3[C@@H]4CCC[C@H]([C@H](C)CC[C@H](O)C(C)C)[C@@]4(C)CC[C@@H]32)C1 [Compound H-5, (2S,4aR,4bS,6aR,7R,10aS,10bS)-2-ethyl-7-((2R,5S)-5-hydroxy-6-methylheptan-2-yl)-4a,6a-dimethyl-1,2,3,4,4a,4b,5,6,6a,7,8,9,10,10a,10b,11-hexadecahydrochrysen-2-ol]",EC50,Table H-2,100 to 500 nM
"CCC(O)(CC)CC[C@@H](C)[C@H]1CC[C@H]2[C@@H]3CC[C@H]4C[C@@](C)(O)CC[C@]4(C)C3=CC[C@]12C [Compound E-16, (3S,5S,8S,10S,13R,14S,17R)-17-((R)-5-ethyl-5-hydroxyheptan-2-yl)-3,10,13-trimethyl-2,3,4,5,6,7,8,10,12,13,14,15,16,17-tetradecahydro-1H-cyclopenta[a]phenanthren-3-ol]",EC50,Table E-2,500 to 1000 nM
"C[C@H](CC[C@@](C)(O)C(F)(F)F)[C@H]1CC[C@H]2[C@@H]3CC[C@H]4C[C@@](C)(O)CC[C@]4(C)C3=CC[C@]12C [Compound E-14, (3S,5S,8S,10S,13R,14S,17R)-3,10,13-trimethyl-17-((2R,5R)-6,6,6-trifluoro-5-hydroxy-5-methylhexan-2-yl)-2,3,4,5,6,7,8,10,12,13,14,15,16,17-tetradecahydro-1H-cyclopenta[a]phenanthren-3-ol]",EC50,Table E-2,100 to 500 nM
"CC[C@]1(O)CC[C@@]2(C)[C@@H](CC[C@H]3[C@@H]4[C@@H]5C[C@@H]5[C@H]([C@H](C)CC[C@@](C)(O)C(F)(F)F)[C@@]4(C)CC[C@@H]32)C1 [Compound B-2, (2S,4aS,4bS,6aR,7S,7aS,8aR,8bS,8cR,10aS)-2-ethyl-4a,6a-dimethyl-7-((2R,5R)-6,6,6-trifluoro-5-hydroxy-5-methylhexan-2-yl)octadecahydrocyclopropa[4,5]cyclopenta[1,2-a]phenanthren-2-ol]",Emax,Table B-2,> 200%
same,EC50,Table B-2,100 to 500 nM
"CC(C)[C@H](O)CC[C@@H](C)[C@H]1CCC[C@H]2[C@@H]3CC=C4C[C@@](C)(O)CC[C@]4(C)[C@H]3CC[C@]12C [Compound H-8, (2S,4aR,4bS,6aR,7R,10aS,10bS)-7-((2R,5R)-5-hydroxy-6-methylheptan-2-yl)-2,4a,6a-trimethyl-1,2,3,4,4a,4b,5,6,6a, 7,8,9,10,10a,10b,11-hexadecahydrochrysen-2-ol]",Emax,Table H-2,< 100%
same,EC50,Table H-2,100 to 500 nM
"CC[C@]1(O)CC[C@@]2(C)[C@@H](CC[C@@H]3[C@@H]2CC[C@]2(CC)[C@@H]([C@H](C)CC[C@H](O)C(C)C)CC[C@@H]32)C1 [Compound F-6, (3S,5S,8R,9S,10S,13R,14S,17R)-3,13-diethyl-17-((2R,5S)-5-hydroxy-6-methylheptan-2-yl)-10-methylhexadecahydro-1H-cyclopenta[a]phenanthren-3-ol]",EC50,Table F-2,100 to 500 nM
"C[C@H](CC[C@](C)(O)C(F)(F)F)[C@H]1CC[C@H]2[C@@H]3CC=C4C[C@@](C)(O)CCC[C@]4(C)[C@H]3CC[C@]12C [Compound D-15, (1R,3aS,3bS,7S,10aR,10bS,12aR)-7,10a,12a-trimethyl-1-((2R,5S)-6,6,6-trifluoro-5-hydroxy-5-methylhexan-2-yl)-1,2,3,3a,3b,4,6,7,8,9,10,10a,10b,11,12,12a-hexadecahydrocyclohepta[a]cyclopenta[f]naphthalen-7-ol]",Emax,Table D-2,< 100%
same,EC50,Table D-2,100 to 500 nM
"CC[C@]1(O)CC[C@@]2(C)C(=CC[C@H]3[C@@H]4[C@H](C)C[C@H]([C@H](C)CCCC(C)(C)O)[C@@]4(C)CC[C@@H]32)C1 [Compound B-21, (3S,8R,9S,10R,13R,14S,15R,17R)-3-ethyl-17-((R)-6-hydroxy-6-methylheptan-2-yl)-10,13,15-trimethyl-2,3,4,7,8,9,10,11,12,13,14,15,16,17-tetradecahydro-1H-cyclopenta[a]phenanthren-3-ol]",EC50,Table B-2,1 to 100 nM
"CC[C@]1(O)CC[C@@H]2CC[C@@H]3[C@H](CC[C@]4(C)[C@@H]([C@H](C)CC[C@](C)(O)C(F)(F)F)CC[C@@H]34)[C@@]2(C)CC1 [Compound D-4, (1R,3aS,3bR,5aS,8S,10aS,10bS,12aR)-8-ethyl-10a,12a-dimethyl-1-((2R,5S)-6,6,6-trifluoro-5-hydroxy-5-methylhexan-2-yl)octadecahydrocyclohepta[a]cyclopenta[f]naphthalen-8-ol]",EC50,Table D-2,> 1000 nM
"CC[C@]1(O)CC[C@@]2(C)[C@@H](CC[C@@H]3[C@@H]2CC[C@]2(C)[C@@H]([C@H](C)CC[C@H](O)C4(C#N)CC4)CC[C@@H]32)C1 [Compound C-4, 1-((1S,4R)-4-((3S,5S,8R,9S,10S,13R,14S,17R)-3-ethyl-3-hydroxy-10,13-dimethylhexadecahydro-1H-cyclopenta[a]phenanthren-17-yl)-1-hydroxypentyl)cyclopropanecarbonitrile]",Emax,Table C-2,< 100%
same,EC50,Table C-2,100 to 500 nM
"CC[C@]1(O)CC[C@@]2(C)[C@@H](CC[C@@H]3[C@@H]2CC[C@]2(C)[C@@H]([C@H](C)CC[C@H](O)CC#N)CC[C@@H]32)C1 [Compound C-10, (3S,6R)-6-((3S,5S,8R,9S,10S,13R,14S,17R)-3-ethyl-3-hydroxy-10,13-dimethylhexadecahydro-1H-cyclopenta[a]phenanthren-17-yl)-3-hydroxyheptanenitrile]",Emax,Table C-2,< 100%
same,EC50,Table C-2,100 to 500 nM
"C[C@H](CCC1(O)CC1)[C@H]1CC[C@H]2[C@@H]3CC[C@H]4C[C@@](C)(O)CC[C@]4(C)C3=CC[C@]12C [Compound E-15, (3S,5S,8S,10S,13R,14S,17R)-17-((R)-4-(1-hydroxycyclopropyl)butan-2-yl)-3,10,13-trimethyl-2,3,4,5,6,7,8,10,12,13,14,15,16,17-tetradecahydro-1H-cyclopenta[a]phenanthren-3-ol]",EC50,Table E-2,1 to 100 nM
"CC[C@]1(O)CC[C@@]2(C)C(=CC[C@H]3[C@@H]4CC[C@H]([C@@H](CC[C@H](O)C(C)C)OC)[C@@]4(C)CC[C@@H]32)C1 [Compound A-16, (3S,8S,9S,10R,13S,14S,17S)-3-ethyl-17-((1R,4S)-4-hydroxy-1-methoxy-5-methylhexyl)-10,13-dimethyl-2,3,4,7,8,9,10,11,12,13,14,15,16,17-tetradecahydro-1H-cyclopenta[a]phenanthren-3-ol]",Emax,Table A-2,> 200%
same,EC50,Table A-2,1 to 100 nM
